Experimental findings from patent US11535670B2, “Combination therapies of HDAC inhibitors and PD-L1 inhibitors” (HUYABIO International, LLC, priority 2016, dated 2022) are described below.

This assay deals with MC38 murine colon carcinoma. Description: Example 2: tumor growth delay in MC38 syngeneic model, HBI-8000 alone and with PD-L1 inhibitor antibody. The class given is in vivo, C57BL/6 mice. The settings on record: HBI-8000 50 mg/kg p.o. qd×21, anti-PDL-1 5 mg/kg i.p. biwk×3. Here is the method: In the present example, HBI-8000 was tested as monotherapy and in combination with PD-L1 inhibitor antibody at 5 mg/kg. The experiment included a vehicle-treated group and a PD-L1 inhibitor antibody monotherapy group, which served as the control groups for analysis of efficacy. Tumors were measured twice per week until the study was ended on Day 50. Each animal was euthanized when its tumor attained the endpoint tumor volume of 1000 mm^3 or on the final day of the study, whichever came first, and the time to endpoint (TTE) for each mouse was calculated. Treatment response was determined from an analysis of percent tumor growth delay (% TGD), defined as the percent increase in the median time to endpoint (TTE) for treated versus control mice; and by logrank significance of differences in survival among groups and regression responses.
Mice: Details of the animals used in this example can be found in Example 1.
Tumor Cell Culture: Details of the tumor cells used in this example can be found in Example 1.
Tumor Implantation and Measurement: Details of tumor implantation and measurement of tumor growth used in this example can be found in paragraph Example 1. […]
Statistics: Details of the statistics and software used in this study can be found in Example 1. […] Table 3.1 describes the values calculated for TTE and % TGD for each treatment group.

On to `Nc1cc(F)ccc1NC(=O)c1ccc(CNC(=O)/C=C/c2cccnc2)cc1` [HBI-8000, N-(2-amino-4-fluorophenyl)-4-[[[(2E)-1-oxo-3-(3-pyridinyl)-2-propen-1-yl]amino]methyl]benzamide], for which the “Median TTE” value (endpoint 1000 mm^3 or Day 50) was 28.4 days. In addition, the “% TGD” value (versus vehicle) came out at 62%.
